Measurements as given in ChEMBL document CHEMBL4007384, “Synthesis and optimization of furano[3,2-d]pyrimidines as selective spleen tyrosine kinase (Syk) inhibitors” (Bioorg Med Chem Lett, 2016).
Converted amounts (≈) assume the structure as drawn.

Experiments:
[1] = target: T1, Serine/threonine-protein kinase Nek2 (Homo sapiens, UniProt P51955); assay: Inhibition of NEK2 (unknown origin) after 60 mins by TR-FRET assay
T1 sequence (P51955 whole entry): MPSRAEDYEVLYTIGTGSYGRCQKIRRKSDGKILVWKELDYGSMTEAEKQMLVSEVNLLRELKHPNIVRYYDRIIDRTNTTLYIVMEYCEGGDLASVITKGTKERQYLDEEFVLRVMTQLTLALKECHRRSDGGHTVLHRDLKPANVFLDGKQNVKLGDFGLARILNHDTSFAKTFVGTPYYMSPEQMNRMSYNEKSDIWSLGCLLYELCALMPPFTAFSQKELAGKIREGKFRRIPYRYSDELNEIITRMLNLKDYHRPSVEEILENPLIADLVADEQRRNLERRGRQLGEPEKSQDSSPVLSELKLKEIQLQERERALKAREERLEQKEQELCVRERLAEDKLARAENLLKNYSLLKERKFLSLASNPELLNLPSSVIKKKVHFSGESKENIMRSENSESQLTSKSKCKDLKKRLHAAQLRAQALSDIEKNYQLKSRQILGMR

[2] = target: Serine/threonine-protein kinase 16 (Homo sapiens, UniProt O75716); assay: Inhibition of STK16 (unknown origin) after 60 mins by TR-FRET assay
[3] = target: Insulin-like growth factor 1 receptor (Homo sapiens, UniProt P08069); assay: Inhibition of IGF1R (unknown origin) after 60 mins by TR-FRET assay
CYP3A4 [4] = target: T2, CYP3A4 (Homo sapiens, UniProt P08684); assay: Inhibition of CYP3A4 in human liver microsomes assessed as residual activity at 50 uM measured after 30 mins relative to control; assay type: ADME; settings: read-out: Activity
Cytochrome P450 3A4 = Cytochrome P450 3A4 (Homo sapiens, UniProt P08684); assay: Time-dependent inhibition of CYP3A4 in human liver microsomes at 10 to 50 uM; assay type: ADME
[5] = target: Dual specificity tyrosine-phosphorylation-regulated kinase 1B (Homo sapiens, UniProt Q9Y463); assay: Inhibition of DYRK1B (unknown origin) after 60 mins by TR-FRET assay
CYP3A4 [6] = target: T2, CYP3A4; assay: Inhibition of CYP3A4 in human liver microsomes assessed as residual activity at 10 uM measured after 30 mins relative to control; assay type: ADME; settings: read-out: Activity
[7] = target: Protein kinase C theta type (Homo sapiens, UniProt Q04759); assay: Inhibition of PKCtheta (unknown origin) after 60 mins by TR-FRET assay
[8] = target: T3, Dual specificity protein kinase TTK (Homo sapiens, UniProt P33981); assay: Inhibition of TTK (unknown origin) after 60 mins by TR-FRET assay
T3 sequence (P33981 whole entry): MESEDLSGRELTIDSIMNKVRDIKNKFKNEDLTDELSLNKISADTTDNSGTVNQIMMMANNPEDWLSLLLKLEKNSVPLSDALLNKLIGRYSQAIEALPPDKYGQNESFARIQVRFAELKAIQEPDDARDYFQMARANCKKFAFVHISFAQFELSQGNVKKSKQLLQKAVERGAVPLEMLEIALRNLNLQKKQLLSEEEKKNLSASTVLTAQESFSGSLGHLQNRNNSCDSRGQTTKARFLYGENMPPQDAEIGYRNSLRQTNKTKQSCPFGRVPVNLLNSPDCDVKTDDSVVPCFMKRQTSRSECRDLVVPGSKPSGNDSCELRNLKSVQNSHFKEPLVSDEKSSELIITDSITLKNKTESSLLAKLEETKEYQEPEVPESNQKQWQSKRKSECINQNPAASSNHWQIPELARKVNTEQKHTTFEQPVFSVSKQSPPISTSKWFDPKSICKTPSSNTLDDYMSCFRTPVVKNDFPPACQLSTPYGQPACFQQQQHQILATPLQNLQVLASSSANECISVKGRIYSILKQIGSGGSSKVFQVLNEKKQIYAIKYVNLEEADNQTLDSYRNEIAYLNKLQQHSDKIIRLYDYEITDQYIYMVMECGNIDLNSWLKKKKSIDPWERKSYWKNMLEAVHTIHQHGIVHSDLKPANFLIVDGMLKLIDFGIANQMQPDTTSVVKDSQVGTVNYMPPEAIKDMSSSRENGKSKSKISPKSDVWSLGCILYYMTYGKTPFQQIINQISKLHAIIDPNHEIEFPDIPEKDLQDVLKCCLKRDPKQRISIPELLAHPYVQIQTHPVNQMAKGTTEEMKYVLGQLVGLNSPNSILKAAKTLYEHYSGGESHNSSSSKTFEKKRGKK

CYP3A4 [9] = target: T2, CYP3A4; assay: Inhibition of CYP3A4 in human liver microsomes assessed as residual activity at 10 uM measured immediately relative to control; assay type: ADME; settings: read-out: Activity
CYP3A4 [10] = target: T2, CYP3A4; assay: Inhibition of CYP3A4 in human liver microsomes assessed as residual activity at 50 uM measured immediately relative to control; assay type: ADME; settings: read-out: Activity
[11] = target: Rho-associated protein kinase 2 (Homo sapiens, UniProt O75116); assay: Inhibition of ROCK2 (unknown origin) after 60 mins by TR-FRET assay
[12] = target: Macrophage colony-stimulating factor 1 receptor (Homo sapiens, UniProt P07333); assay: Inhibition of CSF1R (unknown origin) after 60 mins by TR-FRET assay
[13] = Solubility in pH 5 FeSSIF at 0.2 mg sonicated for 10 mins followed by incubation for 2 days by HPLC analysis; assay type: physicochemical
Insulin receptor = Insulin receptor (Homo sapiens, UniProt P06213); assay: Inhibition of INSR (unknown origin) after 60 mins by TR-FRET assay
[14] = target: Tyrosine-protein kinase Lck (Homo sapiens, UniProt P06239); assay: Inhibition of Lck (unknown origin) after 60 mins by TR-FRET assay
[15] = target: Tyrosine-protein kinase SYK (Homo sapiens, UniProt P43405)
Description: Inhibition of C-terminal His-tagged Syk catalytic domain (356 to 635 residues) (unknown origin) using biotin-TYR1 as substrate after 60 mins by TR-FRET assay

Focal adhesion kinase 1 = Focal adhesion kinase 1 (Homo sapiens, UniProt Q05397); assay: Inhibition of FAK (unknown origin) after 60 mins by TR-FRET assay
[16] = target: Serine/threonine-protein kinase B-raf (Homo sapiens, UniProt P15056); assay: Inhibition of BRAF (unknown origin) after 60 mins by TR-FRET assay
[17] = Inhibition of CDK11 (unknown origin) after 60 mins by TR-FRET assay; parameters: species or system Homo sapiens
[18] = target: Proto-oncogene tyrosine-protein kinase Src (Homo sapiens, UniProt P12931); assay: Inhibition of SRC (unknown origin) after 60 mins by TR-FRET assay
[19] = target: Tyrosine-protein kinase ABL1 (Homo sapiens, UniProt P00519); assay: Inhibition of ABL (unknown origin) after 60 mins by TR-FRET assay
[20] = target: Cyclin-dependent kinase 2 (Homo sapiens, UniProt P24941); assay: Inhibition of CDK2 (unknown origin) after 60 mins by TR-FRET assay
[21] = target: cGMP-dependent protein kinase 1 (Homo sapiens, UniProt Q13976); assay: Inhibition of PKG1A (unknown origin) after 60 mins by TR-FRET assay
[22] = target: Calcium/calmodulin-dependent protein kinase kinase 2 (Homo sapiens, UniProt Q96RR4); assay: Inhibition of CAMKK2 (unknown origin) after 60 mins by TR-FRET assay

Insulin-like growth factor 1 receptor, sequence (P08069 31-736 limits assumed): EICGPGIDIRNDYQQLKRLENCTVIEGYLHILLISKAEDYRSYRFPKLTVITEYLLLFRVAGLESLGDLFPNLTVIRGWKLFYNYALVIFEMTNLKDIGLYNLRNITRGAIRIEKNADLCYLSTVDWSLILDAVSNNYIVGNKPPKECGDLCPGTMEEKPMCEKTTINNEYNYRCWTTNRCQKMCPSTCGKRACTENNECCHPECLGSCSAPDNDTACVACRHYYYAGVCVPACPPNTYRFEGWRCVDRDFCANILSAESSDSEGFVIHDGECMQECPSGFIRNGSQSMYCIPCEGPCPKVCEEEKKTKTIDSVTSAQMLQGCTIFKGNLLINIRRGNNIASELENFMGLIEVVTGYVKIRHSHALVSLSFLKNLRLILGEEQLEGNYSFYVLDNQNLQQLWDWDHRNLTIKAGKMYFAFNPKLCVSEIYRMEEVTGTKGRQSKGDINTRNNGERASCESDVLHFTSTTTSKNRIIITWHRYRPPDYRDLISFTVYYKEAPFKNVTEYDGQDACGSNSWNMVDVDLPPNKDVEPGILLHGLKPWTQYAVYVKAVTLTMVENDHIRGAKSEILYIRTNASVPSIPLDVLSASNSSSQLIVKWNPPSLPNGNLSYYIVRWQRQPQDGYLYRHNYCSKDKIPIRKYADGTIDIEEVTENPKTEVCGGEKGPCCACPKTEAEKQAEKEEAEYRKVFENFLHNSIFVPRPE
Insulin-like growth factor 1 receptor, sequence (P08069 741-1367 limits assumed): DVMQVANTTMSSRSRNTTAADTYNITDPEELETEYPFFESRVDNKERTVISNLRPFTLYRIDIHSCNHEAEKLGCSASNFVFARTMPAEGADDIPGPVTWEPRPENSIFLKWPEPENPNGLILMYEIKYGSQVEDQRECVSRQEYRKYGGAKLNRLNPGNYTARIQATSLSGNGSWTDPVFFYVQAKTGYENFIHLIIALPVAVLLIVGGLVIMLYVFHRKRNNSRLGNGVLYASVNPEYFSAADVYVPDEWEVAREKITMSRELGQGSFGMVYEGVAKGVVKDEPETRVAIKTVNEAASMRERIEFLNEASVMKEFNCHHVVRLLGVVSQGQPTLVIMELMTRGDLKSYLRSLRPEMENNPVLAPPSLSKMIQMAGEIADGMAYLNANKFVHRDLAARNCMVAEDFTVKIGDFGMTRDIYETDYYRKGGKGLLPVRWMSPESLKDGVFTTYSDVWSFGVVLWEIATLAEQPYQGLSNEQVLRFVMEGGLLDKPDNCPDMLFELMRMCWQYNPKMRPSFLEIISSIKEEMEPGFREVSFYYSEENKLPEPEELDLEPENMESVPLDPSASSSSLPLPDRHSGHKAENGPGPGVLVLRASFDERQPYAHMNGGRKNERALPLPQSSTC
Protein kinase C theta type, sequence (Q04759 whole entry): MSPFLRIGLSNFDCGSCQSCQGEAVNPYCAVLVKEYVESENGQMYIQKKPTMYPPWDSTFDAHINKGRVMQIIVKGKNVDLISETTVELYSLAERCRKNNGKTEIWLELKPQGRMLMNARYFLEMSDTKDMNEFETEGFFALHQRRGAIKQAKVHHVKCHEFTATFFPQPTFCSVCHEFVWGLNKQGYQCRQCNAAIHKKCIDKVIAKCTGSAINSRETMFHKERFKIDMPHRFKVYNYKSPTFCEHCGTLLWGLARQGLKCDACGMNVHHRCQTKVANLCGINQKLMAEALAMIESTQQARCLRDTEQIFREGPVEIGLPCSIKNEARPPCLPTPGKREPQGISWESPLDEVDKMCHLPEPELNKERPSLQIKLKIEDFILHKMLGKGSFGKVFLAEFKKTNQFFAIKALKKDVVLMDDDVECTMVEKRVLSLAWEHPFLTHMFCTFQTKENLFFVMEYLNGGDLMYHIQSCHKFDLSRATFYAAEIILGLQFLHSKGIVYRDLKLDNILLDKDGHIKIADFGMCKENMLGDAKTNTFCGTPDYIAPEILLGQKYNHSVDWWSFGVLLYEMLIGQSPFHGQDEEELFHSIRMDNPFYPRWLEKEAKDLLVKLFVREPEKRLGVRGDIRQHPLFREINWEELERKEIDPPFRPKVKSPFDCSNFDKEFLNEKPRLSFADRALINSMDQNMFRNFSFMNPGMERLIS
Dual specificity tyrosine-phosphorylation-regulated kinase 1B, sequence (Q9Y463 whole entry): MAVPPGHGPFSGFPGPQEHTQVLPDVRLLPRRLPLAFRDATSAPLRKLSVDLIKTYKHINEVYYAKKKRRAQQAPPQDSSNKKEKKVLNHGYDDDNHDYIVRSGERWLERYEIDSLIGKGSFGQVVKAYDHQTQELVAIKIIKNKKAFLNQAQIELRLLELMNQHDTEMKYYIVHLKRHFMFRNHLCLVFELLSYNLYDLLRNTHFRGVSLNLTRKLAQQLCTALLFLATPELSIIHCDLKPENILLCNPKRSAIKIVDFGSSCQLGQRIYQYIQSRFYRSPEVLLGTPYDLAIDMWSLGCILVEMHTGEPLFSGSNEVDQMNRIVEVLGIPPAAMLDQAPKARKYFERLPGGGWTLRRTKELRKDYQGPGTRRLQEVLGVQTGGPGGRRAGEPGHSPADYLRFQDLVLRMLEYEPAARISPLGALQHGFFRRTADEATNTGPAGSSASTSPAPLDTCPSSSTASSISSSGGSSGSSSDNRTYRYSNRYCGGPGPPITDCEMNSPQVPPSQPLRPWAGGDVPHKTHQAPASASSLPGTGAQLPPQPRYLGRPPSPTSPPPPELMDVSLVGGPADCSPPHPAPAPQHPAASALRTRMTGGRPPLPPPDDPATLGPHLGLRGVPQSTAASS
Rho-associated protein kinase 2, sequence (O75116 whole entry): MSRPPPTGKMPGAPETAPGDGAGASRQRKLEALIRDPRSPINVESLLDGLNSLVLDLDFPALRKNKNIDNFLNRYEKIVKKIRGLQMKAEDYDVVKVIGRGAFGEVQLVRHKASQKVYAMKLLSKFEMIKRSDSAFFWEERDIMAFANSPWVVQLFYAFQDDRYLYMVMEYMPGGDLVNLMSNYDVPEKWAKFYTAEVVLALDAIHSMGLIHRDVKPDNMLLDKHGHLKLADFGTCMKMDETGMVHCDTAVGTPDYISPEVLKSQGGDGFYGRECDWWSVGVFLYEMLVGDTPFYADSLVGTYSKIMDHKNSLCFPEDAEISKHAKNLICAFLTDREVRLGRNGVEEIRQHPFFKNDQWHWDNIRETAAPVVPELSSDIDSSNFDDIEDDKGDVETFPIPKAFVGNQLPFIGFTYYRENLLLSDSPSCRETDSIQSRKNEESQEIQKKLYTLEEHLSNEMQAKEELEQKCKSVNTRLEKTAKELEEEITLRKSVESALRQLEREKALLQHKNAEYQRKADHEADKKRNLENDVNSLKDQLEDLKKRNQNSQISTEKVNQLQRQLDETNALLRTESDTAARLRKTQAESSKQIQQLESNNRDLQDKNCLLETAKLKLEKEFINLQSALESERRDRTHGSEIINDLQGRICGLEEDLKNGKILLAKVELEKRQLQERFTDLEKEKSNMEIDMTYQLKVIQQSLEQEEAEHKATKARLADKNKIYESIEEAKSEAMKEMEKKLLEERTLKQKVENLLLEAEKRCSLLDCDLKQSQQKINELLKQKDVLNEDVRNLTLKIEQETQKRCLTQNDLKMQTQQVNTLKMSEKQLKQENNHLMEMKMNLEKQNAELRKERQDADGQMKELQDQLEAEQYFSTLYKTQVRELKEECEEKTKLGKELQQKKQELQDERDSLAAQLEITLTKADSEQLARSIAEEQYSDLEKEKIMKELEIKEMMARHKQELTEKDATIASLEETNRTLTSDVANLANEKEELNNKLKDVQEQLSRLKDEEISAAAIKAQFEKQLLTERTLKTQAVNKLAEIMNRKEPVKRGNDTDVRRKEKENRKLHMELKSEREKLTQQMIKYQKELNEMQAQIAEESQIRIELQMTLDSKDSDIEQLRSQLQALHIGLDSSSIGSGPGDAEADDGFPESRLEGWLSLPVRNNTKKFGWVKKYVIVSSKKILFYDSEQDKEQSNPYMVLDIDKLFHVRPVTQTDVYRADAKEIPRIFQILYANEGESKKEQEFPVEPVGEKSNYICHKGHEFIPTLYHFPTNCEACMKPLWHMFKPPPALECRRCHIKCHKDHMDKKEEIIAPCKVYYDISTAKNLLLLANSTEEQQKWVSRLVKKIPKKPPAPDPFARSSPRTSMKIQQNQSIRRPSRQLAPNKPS
Macrophage colony-stimulating factor 1 receptor, sequence (P07333 whole entry): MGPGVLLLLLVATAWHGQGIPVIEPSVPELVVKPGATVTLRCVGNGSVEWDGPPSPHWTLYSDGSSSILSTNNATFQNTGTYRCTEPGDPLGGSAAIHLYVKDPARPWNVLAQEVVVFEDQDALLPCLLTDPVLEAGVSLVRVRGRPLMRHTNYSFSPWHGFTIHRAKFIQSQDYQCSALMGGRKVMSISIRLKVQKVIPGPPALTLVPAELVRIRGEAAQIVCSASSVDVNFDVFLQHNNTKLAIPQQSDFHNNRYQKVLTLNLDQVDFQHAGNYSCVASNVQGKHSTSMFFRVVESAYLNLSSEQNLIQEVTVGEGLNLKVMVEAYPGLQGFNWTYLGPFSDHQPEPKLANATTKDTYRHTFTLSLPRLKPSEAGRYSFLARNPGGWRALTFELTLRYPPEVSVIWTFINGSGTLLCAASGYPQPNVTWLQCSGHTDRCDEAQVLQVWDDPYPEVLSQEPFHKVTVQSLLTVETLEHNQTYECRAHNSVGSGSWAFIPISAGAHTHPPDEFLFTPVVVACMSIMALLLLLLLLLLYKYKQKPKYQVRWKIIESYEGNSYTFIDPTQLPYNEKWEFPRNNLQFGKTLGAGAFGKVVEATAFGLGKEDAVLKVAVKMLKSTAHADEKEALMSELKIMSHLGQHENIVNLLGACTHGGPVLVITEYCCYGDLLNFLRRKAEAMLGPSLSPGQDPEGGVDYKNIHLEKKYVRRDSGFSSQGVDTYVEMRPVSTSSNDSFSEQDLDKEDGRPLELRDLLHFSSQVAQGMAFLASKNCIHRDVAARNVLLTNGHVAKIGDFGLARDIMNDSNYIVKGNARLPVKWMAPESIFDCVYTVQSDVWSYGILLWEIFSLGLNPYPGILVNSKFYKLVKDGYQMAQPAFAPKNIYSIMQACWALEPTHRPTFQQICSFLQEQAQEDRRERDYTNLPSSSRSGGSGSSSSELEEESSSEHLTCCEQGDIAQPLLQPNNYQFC

| IC50 [1] | IC50 [2] | IC50 [3] | activity at 0.5 h, 50 µM (CYP3A4 [4]) | IC50 [5] | activity at 0.5 h, 10 µM (CYP3A4 [6]) | IC50 [7] | IC50 [8] | activity at 0 min, 10 µM (CYP3A4 [9]) | activity at 0 min, 50 µM (CYP3A4 [10]) | IC50 [11] | IC50 [12] | solubility at 48 h [13] | IC50 (Insulin receptor) | IC50 [14] | IC50 [15] | IC50 (Focal adhesion kinase 1) | IC50 [19] | Compound | also measured |
| --- | --- | --- | --- | --- | --- | --- | --- | --- | --- | --- | --- | --- | --- | --- | --- | --- | --- | --- | --- |
| > 10 µM | 4.5 µM | > 10 µM | 28% | > 10 µM | 51% | > 10 µM | 2.16 µM | 94% | 87% | > 10 µM | > 10 µM | 99 µM (≈ 31.7 µg/mL) | > 10 µM |  |  |  |  | Cc1n[nH]c2cc(Nc3nc(NC4CC4)c4occc4n3)ccc12 | TDI (Cytochrome P450 3A4): Active |
| > 10 µM |  | > 10 µM |  |  |  |  |  |  |  |  | > 10 µM |  |  | 7.79 µM | 0.081 µM | > 10 µM |  | FC(F)(F)CNc1nc(Nc2ccc3cn[nH]c3c2)nc2ccoc12 |  |
| > 10 µM | 0.885 µM | 6.02 µM | 75% | > 10 µM | 81% | > 10 µM |  | 91% | 92% | 6.32 µM | > 10 µM | 4.96 µM (≈ 2.09 µg/mL) | 2.13 µM | 0.699 µM |  | 5.5 µM | 0.408 µM | CC1(C)OCC(=O)Nc2cc(Nc3nc(NCC(F)(F)F)c4occc4n3)ccc21 | IC50 [16]: > 10 µM; IC50 [17]: > 10 µM; IC50 [18]: 0.156 µM; IC50 [20]: > 10 µM; IC50 [21]: > 10 µM; IC50 [22]: 1.91 µM |
| > 10 µM |  | > 10 µM |  | > 10 µM |  | > 10 µM | 1.84 µM |  |  | > 10 µM | > 10 µM |  | 3.48 µM | 3.7 µM | 0.061 µM | > 10 µM | 2.75 µM | FC(F)(F)CNc1nc(Nc2ccc(N3CCOCC3)c(Cl)c2)nc2ccoc12 |  |
